Measurements: PubChem BioAssay AID1963431 (Molecular Pharmacology Branch, DTP, NCI, 2024)
pIC50: −log10 of the molar value. Values belong to the compound of their own block, whether it stands above or below them.

Test system: Rh18 complex spheroid viability, percent test/control
Assay: Anticancer human tumor Rh18 cell line growth inhibition [Asc];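 also: spheroids exposed to compound for 7 days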;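 as to viability, T/C: 100% = DMSO vehicle control wells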
Conditions: for pIC50: curve of first compound; for viability, T/C: stronger effect = lower value
Method: Multicellular complex tumor spheroid response to apoptosis pathway targeting inhibitors Alrizomadlin, Pelcitoclax, and Dasminapant in combination with a variety of drugs and investigational agents in selected tumor cell lines
The MDM2 inhibitor alrizomadlin, the Bcl-2/Bcl-xL inhibitor pelcitoclax, and the IAPs inhibitor dasminapant were evaluated both individually and in combination with standard of care and investigational anticancer small molecules within a complex spheroid model of solid tumors. . Complex spheroids include a stromal component modeled by human endothelial cells (HUVEC) and fibroblasts modeled by human mesenchymal stem cells (MSCs). The concentration ranges selected for each drug and investigational agent were based upon clinically achievable concentrations if the clinical Cmax of the agent was known.
Compounds. The drugs and investigational agents: alrizomadlin (APG-115; NSC831270), pelcitoclax (APG-1252; NSC835773), dasminapant (APG-1387;NSC834197), TAK-243 (NSC785004), copanlisib (NSC809693), olaparib (NSC753686), talazoparib (NSC767125), cobimetinib (NSC 768068), eltanexor (KPT-8602, NSC 794443), abemaciclib (NSC 768073), sotorasib (NSC818433), adagrasib (NSC 831453), MRTX-1133 (NSC 836407), Iadademestat (ORY1001, NSC 806812), and RMC-4630 (NSC839698), were obtained from the NCI Developmental Therapeutics Program Chemical Repository. The FDA-approved anticancer drug set is available from the Developmental Therapeutics Program at https://dtp.cancer.gov/organization/dscb/obtaining/available plates.htm. […] The stock solutions were prepared in dimethyl sulfoxide (DMSO, Sigma-Aldrich, St. Louis, MO, cat. D2650) at 800-fold the tested concentration and stored at -70 degrees C prior to their use. All drugs and investigational agents were tested over a range starting from a high concentration at or near the clinical Cmax and decreasing in half-log increments. If the clinical Cmax for an agent had not been determined, the highest concentration tested was 10 microM.
The patient-derived cancer (PDC) cell lines include five colon adenocarcinomas: 186277-243-T-J2-PDC, 616215-338-R-J1-PDC, 439559-082-T-J2-PDC, 463943-066-T-J2-PDC, and 519858-162-T-J1-PDC; three pancreatic carcinomas: 323965-272-R-J2-PDC, 521955-158-R6-J3-PDC, and 521955-158-R2-J5-PDC; two uterine sarcomas: 327498-152-R-J2-PDC and 993429-296-R-J1-PDC; two rhabdomyosarcomas: 755483-174-R-J1-PDC and 772245-204-R-J1-PDC; two soft tissue sarcomas: 126254-015-R-J1-PDC and 494315-158-R-J1-PDC; two malignant fibrous histiocytomas: 317291-083-R-J1-PDC and 596521-263-R-J1-PDC; two breast carcinomas: 171881-019-R-J1-PDC and 885512-296-R-J2-PDC; and one ovarian carcinoma: 6556581-035-R-J-PDC were obtained from the NCI PDMR, (https://pdmr.cancer.gov). The established cell lines HSSY-2 synovial sarcoma (RRID:CVCL 8719), SYO-1 synovial sarcoma (RRID:CVCL_7146), MPNST malignant peripheral neural sheath tumor were obtained from the Sloan Kettering Institute. The following established cell lines were purchased from the American Type Culture Collection (ATCC, Manassas, VA), Sor the received from the NCI repository:, PANC-1 pancreatic carcinoma (CRL-1469, RRID:CVCL_0480), OVCAR-5 ovarian carcinoma (RRID:CVCL_1628), OVCAR-8 ovarian carcinoma (RRID:CVCL_1629), , MCF-7 breast carcinoma (CRL-12584, RRID:CVCL_0031), MDA-MB-231 breast carcinoma (CRL-12532, RRID:CVCL_0062), NCI-H1876 small cell lung carcinoma (CRL-5902, RRID:CVCL_1503), NCI-H510A small cell lung carcinoma (HTB-184, RRID:CVCL_1565), NCI-H1417 (CRL-5869, RRID:CVCL_1469), and NCI-H196 small cell lung carcinoma (CRL-5823, RRID:CVCL_1509). Dr. Peter Houghton (Greehey Children's Cancer Research Institute, University of Texas Health Science Center, San Antonio, TX) provided Rh-18 rhabdomyosarcoma (RRID:CVCL_1659). Pooled donor human umbilical vein endothelial cells (HUVEC, Lonza, cat. CC-2519) and human mesenchymal stem cells (hMSC, Lonza, cat. PT-2501) were purchased from Lonza (Walkersville, MD).
Cell Culture. […]

[1] = second compound 0.03 µM, first compound 0.00316 µM
[2] = second compound 0.03 µM, first compound 0.01 µM
[3] = second compound 0.03 µM, first compound 0.0316 µM
[4] = second compound 0.03 µM, first compound 0.1 µM
[5] = second compound 0.0949 µM, first compound 0.00316 µM
[6] = second compound 0.0949 µM, first compound 0.01 µM
[7] = second compound 0.0949 µM, first compound 0.0316 µM
[8] = second compound 0.0949 µM, first compound 0.1 µM
[9] = second compound 0.3 µM, first compound 0.00316 µM
[10] = second compound 0.3 µM, first compound 0.01 µM
[11] = second compound 0.3 µM, first compound 0.0316 µM
[12] = second compound 0.3 µM, first compound 0.1 µM
[13] = second compound 0.949 µM, first compound 0.00316 µM
[14] = second compound 0.949 µM, first compound 0.01 µM
[15] = second compound 0.949 µM, first compound 0.0316 µM
[16] = second compound 0.949 µM, first compound 0.1 µM
[17] = second compound 3 µM, first compound 0.00316 µM
[18] = second compound 3 µM, first compound 0.01 µM
[19] = second compound 3 µM, first compound 0.0316 µM
[20] = second compound 3 µM, first compound 0.1 µM

pIC50 (second compound 0.03 µM): > 8.50 | pIC50 (second compound 0.0949 µM): > 8.50 | pIC50 (second compound 0.3 µM): > 8.50 | pIC50 (second compound 0.949 µM): > 8.50 | pIC50 (second compound 3 µM): > 8.50
Compound: CCN1CCN(Cc2ccc(Nc3ncc(F)c(-c4cc(F)c5nc(C)n(C(C)C)c5c4)n3)nc2)CC1 + CCN1C(C(=O)NC23CCC(C(=O)O)(CC2)CC3)C(c2cccc(Cl)c2F)C2(C(=O)Nc3cc(Cl)ccc32)C12CCCCC2
viability, T/C [1]: 42.9% | viability, T/C [2]: 39.7% | viability, T/C [3]: 41.4% | viability, T/C [4]: 38.6% | viability, T/C (second compound 0.03 µM, first compound 0.316 µM): 46.5% | viability, T/C (second compound 0.03 µM, first compound 1 µM): 56.1% | viability, T/C [5]: 25.2% | viability, T/C [6]: 24.9% | viability, T/C [7]: 26.3% | viability, T/C [8]: 29.5% | viability, T/C (second compound 0.0949 µM, first compound 0.316 µM): 34.6% | viability, T/C (second compound 0.0949 µM, first compound 1 µM): 56.7% | viability, T/C [9]: 11.7% | viability, T/C [10]: 12.9% | viability, T/C [11]: 14% | viability, T/C [12]: 14.4% | viability, T/C (second compound 0.3 µM, first compound 0.316 µM): 14.2% | viability, T/C (second compound 0.3 µM, first compound 1 µM): 19.8% | viability, T/C [13]: 9.3% | viability, T/C [14]: 8.54% | viability, T/C [15]: 10.2% | viability, T/C [16]: 11.4% | viability, T/C (second compound 0.949 µM, first compound 0.316 µM): 10.6% | viability, T/C (second compound 0.949 µM, first compound 1 µM): 14.6% | viability, T/C [17]: 8.98% | viability, T/C [18]: 7.11% | viability, T/C [19]: 8.3% | viability, T/C [20]: 7.8% | viability, T/C (second compound 3 µM, first compound 0.316 µM): 8.59% | viability, T/C (second compound 3 µM, first compound 1 µM): 13.3%

pIC50 (second compound 0.03 µM): > 9.02 | pIC50 (second compound 0.0949 µM): > 9.02 | pIC50 (second compound 0.3 µM): > 9.02 | pIC50 (second compound 0.949 µM): > 9.02 | pIC50 (second compound 3 µM): > 9.02
Compound: NC(=O)C(=Cn1cnc(-c2cc(C(F)(F)F)cc(C(F)(F)F)c2)n1)c1cncnc1 + CCN1C(C(=O)NC23CCC(C(=O)O)(CC2)CC3)C(c2cccc(Cl)c2F)C2(C(=O)Nc3cc(Cl)ccc32)C12CCCCC2
viability, T/C (second compound 0.03 µM, first compound 0.000949 µM): 39.2% | viability, T/C (second compound 0.03 µM, first compound 0.003 µM): 32% | viability, T/C (second compound 0.03 µM, first compound 0.00949 µM): 37.7% | viability, T/C (second compound 0.03 µM, first compound 0.03 µM): 32% | viability, T/C (second compound 0.03 µM, first compound 0.0949 µM): 26.6% | viability, T/C (second compound 0.03 µM, first compound 0.3 µM): 22.1% | viability, T/C (second compound 0.0949 µM, first compound 0.000949 µM): 19.4% | viability, T/C (second compound 0.0949 µM, first compound 0.003 µM): 18.7% | viability, T/C (second compound 0.0949 µM, first compound 0.00949 µM): 16.7% | viability, T/C (second compound 0.0949 µM, first compound 0.03 µM): 12.7% | viability, T/C (second compound 0.0949 µM, first compound 0.0949 µM): 9.47% | viability, T/C (second compound 0.0949 µM, first compound 0.3 µM): 4.98% | viability, T/C (second compound 0.3 µM, first compound 0.000949 µM): 9.47% | viability, T/C (second compound 0.3 µM, first compound 0.003 µM): 9.88% | viability, T/C (second compound 0.3 µM, first compound 0.00949 µM): 9.7% | viability, T/C (second compound 0.3 µM, first compound 0.03 µM): 6.03% | viability, T/C (second compound 0.3 µM, first compound 0.0949 µM): 5% | viability, T/C (second compound 0.3 µM, first compound 0.3 µM): 1.69% | viability, T/C (second compound 0.949 µM, first compound 0.000949 µM): 7.7% | viability, T/C (second compound 0.949 µM, first compound 0.003 µM): 9.36% | viability, T/C (second compound 0.949 µM, first compound 0.00949 µM): 6.31% | viability, T/C (second compound 0.949 µM, first compound 0.03 µM): 4.21% | viability, T/C (second compound 0.949 µM, first compound 0.0949 µM): 3.62% | viability, T/C (second compound 0.949 µM, first compound 0.3 µM): 1.42% | viability, T/C (second compound 3 µM, first compound 0.000949 µM): 6.6% | viability, T/C (second compound 3 µM, first compound 0.003 µM): 6.14% | viability, T/C (second compound 3 µM, first compound 0.00949 µM): 5.36% | viability, T/C (second compound 3 µM, first compound 0.03 µM): 4.12% | viability, T/C (second compound 3 µM, first compound 0.0949 µM): 2.88% | viability, T/C (second compound 3 µM, first compound 0.3 µM): 1.03%

pIC50 (second compound 0.03 µM): > 9.50 | pIC50 (second compound 0.0949 µM): > 9.50 | pIC50 (second compound 0.3 µM): > 9.50 | pIC50 (second compound 0.949 µM): > 9.50 | pIC50 (second compound 3 µM): > 9.50
Compound: NC1CCC(NC2CC2c2ccccc2)CC1 (stereo not given) + CCN1C(C(=O)NC23CCC(C(=O)O)(CC2)CC3)C(c2cccc(Cl)c2F)C2(C(=O)Nc3cc(Cl)ccc32)C12CCCCC2
viability, T/C (second compound 0.03 µM, first compound 0.000316 µM): 31.7% | viability, T/C (second compound 0.03 µM, first compound 0.001 µM): 31.3% | viability, T/C [1]: 30.4% | viability, T/C [2]: 29.5% | viability, T/C [3]: 33.9% | viability, T/C [4]: 34.5% | viability, T/C (second compound 0.0949 µM, first compound 0.000316 µM): 19.3% | viability, T/C (second compound 0.0949 µM, first compound 0.001 µM): 23.4% | viability, T/C [5]: 18.8% | viability, T/C [6]: 19% | viability, T/C [7]: 19.6% | viability, T/C [8]: 20.9% | viability, T/C (second compound 0.3 µM, first compound 0.000316 µM): 11.1% | viability, T/C (second compound 0.3 µM, first compound 0.001 µM): 13.3% | viability, T/C [9]: 13% | viability, T/C [10]: 13.3% | viability, T/C [11]: 12.9% | viability, T/C [12]: 14.4% | viability, T/C (second compound 0.949 µM, first compound 0.000316 µM): 11.6% | viability, T/C (second compound 0.949 µM, first compound 0.001 µM): 10.8% | viability, T/C [13]: 9.55% | viability, T/C [14]: 8.96% | viability, T/C [15]: 10.3% | viability, T/C [16]: 11.3% | viability, T/C (second compound 3 µM, first compound 0.000316 µM): 11% | viability, T/C (second compound 3 µM, first compound 0.001 µM): 10.2% | viability, T/C [17]: 11.8% | viability, T/C [18]: 10.1% | viability, T/C [19]: 8.61% | viability, T/C [20]: 9.99%
